This note sets out measurements from ChEMBL document CHEMBL6109122 (J Med Chem, 2025).

Calls of active or inactive are those of the source. The rule behind the calls is not given here. Bounds are passed on as bounds.

The target in series [1] is T1, Protein cereblon/Non-receptor tyrosine-protein kinase TYK2 (Homo sapiens, UniProt P29597+Q96SW2). Nature of the series: PROTAC activity at CRBN/TYK2 in human Jurkat cells assessed as induction of degradation of TYK2 at 10 nM measured after 10 hrs by Western blot analysis relative to control. Type of series: cell-based. A general note: Immunoblotting shows a protein as a band on a membrane.

Series [2] relates to Jurkat. Nature of the series: Downregulation of Ikaros level in human Jurkat cells at 30 nM measured after 4 hrs by DIA-Based Proteomic analysis. The series is classed as functional, cell-based.
The target in series [3] is T1, Protein cereblon/Non-receptor tyrosine-protein kinase TYK2. Briefly: PROTAC activity at CRBN/TYK2 in human Jurkat cells assessed as induction of degradation of TYK2 at 10 nM preincubated with MG132 for 2 hrs followed by compound addition and measured after 10 hrs by Western blot analysis. Type of series: cell-based.
Series [4] can be described thus: Inhibition of IFN-alpha activated TYK2 dependent STAT3 phosphorylation in human Jurkat cells incubated for 10 hrs by Western blot analysis. The series is classed as cell-based.
The nature of series [5]: Inhibition of TYK2 dependent STAT3 phosphorylation in IL-6 stimulated human PBMC cells preincubated for 60 mins followed by IL-6 stimulation and measured after 60 mins by FACS assay. The series is classed as cell-based.
For series [6], the system named is Mus musculus. Briefly: Anti-inflammatory activity in imiquimod-induced female BALB/c mouse psoriasis model assessed as reduction in acanthosis at 5 mg/kg, ip administered daily topically for 6 days by H and E staining based analysis. Type of series: functional, organism-based. The following applies: time 6.0 day.
The nature of series [7]: MRT (0 to infinity) in male ICR mouse at 5 mg/kg, ip measured up to 24 hrs by LC-MS/MS analysis. The series is classed as ADME, organism-based. Conditions: in vivo.
The target in series [8] is T1, Protein cereblon/Non-receptor tyrosine-protein kinase TYK2. Nature of the series: PROTAC activity at CRBN/TYK2 in human Jurkat cells assessed as induction of degradation of TYK2 at 10 nM measured after 4 hrs by Western blot analysis. The series is classed as cell-based.

T1 sequence (P29597 whole entry, looked up): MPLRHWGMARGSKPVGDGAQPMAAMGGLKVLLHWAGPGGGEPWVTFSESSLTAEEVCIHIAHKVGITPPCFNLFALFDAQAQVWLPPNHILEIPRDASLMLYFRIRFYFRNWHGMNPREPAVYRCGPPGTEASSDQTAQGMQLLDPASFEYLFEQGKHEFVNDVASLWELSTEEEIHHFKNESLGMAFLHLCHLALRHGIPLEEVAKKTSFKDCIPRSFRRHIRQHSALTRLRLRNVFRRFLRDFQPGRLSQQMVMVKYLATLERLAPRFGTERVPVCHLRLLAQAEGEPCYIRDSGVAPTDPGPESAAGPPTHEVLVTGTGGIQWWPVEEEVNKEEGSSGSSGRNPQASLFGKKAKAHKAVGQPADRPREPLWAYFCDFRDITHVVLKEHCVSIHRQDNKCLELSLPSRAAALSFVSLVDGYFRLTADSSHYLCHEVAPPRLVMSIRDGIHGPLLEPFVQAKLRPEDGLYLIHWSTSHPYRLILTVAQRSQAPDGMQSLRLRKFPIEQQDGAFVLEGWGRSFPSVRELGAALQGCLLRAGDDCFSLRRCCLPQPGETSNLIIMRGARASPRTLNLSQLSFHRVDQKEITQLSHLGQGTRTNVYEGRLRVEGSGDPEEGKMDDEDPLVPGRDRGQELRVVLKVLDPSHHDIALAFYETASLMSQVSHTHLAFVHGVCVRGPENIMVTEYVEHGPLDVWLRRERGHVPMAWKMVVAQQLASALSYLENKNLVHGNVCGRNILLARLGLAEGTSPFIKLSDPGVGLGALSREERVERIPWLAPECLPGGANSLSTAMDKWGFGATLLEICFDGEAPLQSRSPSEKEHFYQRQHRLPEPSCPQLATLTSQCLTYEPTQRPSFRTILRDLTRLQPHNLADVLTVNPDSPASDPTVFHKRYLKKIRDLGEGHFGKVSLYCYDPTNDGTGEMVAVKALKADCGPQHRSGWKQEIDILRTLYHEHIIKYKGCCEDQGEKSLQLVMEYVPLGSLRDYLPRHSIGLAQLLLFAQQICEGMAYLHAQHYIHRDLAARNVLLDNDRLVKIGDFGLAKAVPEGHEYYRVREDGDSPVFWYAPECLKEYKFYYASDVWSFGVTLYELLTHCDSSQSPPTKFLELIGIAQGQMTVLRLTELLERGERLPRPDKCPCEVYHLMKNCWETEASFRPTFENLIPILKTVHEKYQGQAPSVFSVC
T1 sequence (Q96SW2 whole entry, looked up): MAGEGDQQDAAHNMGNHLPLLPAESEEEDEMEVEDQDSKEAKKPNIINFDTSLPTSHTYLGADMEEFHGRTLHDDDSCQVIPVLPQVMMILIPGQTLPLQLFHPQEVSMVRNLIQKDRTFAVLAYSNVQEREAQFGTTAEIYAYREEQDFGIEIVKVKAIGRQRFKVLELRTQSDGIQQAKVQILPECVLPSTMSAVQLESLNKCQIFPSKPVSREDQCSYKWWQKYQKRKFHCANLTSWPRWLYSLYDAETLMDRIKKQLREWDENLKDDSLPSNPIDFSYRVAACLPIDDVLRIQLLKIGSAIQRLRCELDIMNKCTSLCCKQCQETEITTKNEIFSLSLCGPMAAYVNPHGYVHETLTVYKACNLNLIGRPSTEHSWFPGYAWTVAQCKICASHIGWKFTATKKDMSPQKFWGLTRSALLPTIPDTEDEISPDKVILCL

For the compound `CNC(=O)c1cnc(Nc2ccc(C(=O)NC3CCC(Nc4ccc5c(c4)C(=O)N(C4CCC(=O)NC4=O)C5=O)CC3)cn2)cc1Nc1cccc(-c2ncc(F)cn2)c1OC` (stereo not drawn), in series [1], the Activity was 96%. Moreover, the result in series [2] and in series [3] was inactive. The values for the IC50 in series [4] and in series [5] were 6.7 nM and over 10000 nM, respectively. In addition, the outcome in series [6] and in series [8] was Active. The MRT inf in series [7] stood at 4.2 h.

A word on the IC50: it is the point on the concentration scale where inhibition reaches its midpoint. Usually MRT inf stands for a mean duration of stay, worked out from the concentration-time curve.
